Source: ChEMBL document CHEMBL1201862, “PubChem BioAssay data set” (2004)
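Assay format: 96-well plates, 48-hour exposure. Abbreviation: GI50, concentration required for 50% inhibition of growth.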 Active and inactive are the calls of the source. Rule as the data show it: active = GI50 up to about 1.1 µM and inactive = higher.

Columns and labels:
Assay in all cases: NCI anticancer screen, dose series, 48 h
HCC 2998 = tested on: HCC 2998
SF-268 = tested on: SF-268
SNB-19 = tested on: SNB-19
CAKI-1 = tested on: CAKI-1
U-251 = tested on: U-251
SK-MEL-28 = tested on: SK-MEL-28
IGROV-1 = tested on: IGROV-1
TK-10 = tested on: TK-10
LOX IMVI = tested on: LOX IMVI
RXF 393 = tested on: RXF 393
SF-295 = tested on: SF-295
OVCAR-4 = tested on: OVCAR-4
NCI-H522 = tested on: NCI-H522
A549 = tested on: A549
UO-31 = tested on: UO-31
UACC-62 = tested on: UACC-62
UACC-257 = tested on: UACC-257
Malme-3M = tested on: Malme-3M
DU-145 = tested on: DU-145
MDA-MB-231 = tested on: MDA-MB-231

Measured: GI50

COc1cccc(NC(=O)C(=O)C(C(=O)c2ccccc2F)C2OC(=O)c3ccccc32)c1 (centres undefined)
inactive: HCC 2998 17.9 µM | SF-268 30.5 µM | SNB-19 24.9 µM | CAKI-1 52.5 µM | U-251 15.5 µM | SK-MEL-28 58.6 µM | IGROV-1 56.6 µM | TK-10 > 100 µM | LOX IMVI 29.9 µM | RXF 393 28.1 µM | SF-295 37.7 µM | OVCAR-4 36.4 µM | NCI-H522 16.1 µM | A549 45.3 µM | UO-31 34.4 µM | UACC-62 26 µM | UACC-257 > 100 µM

COc1c2ccoc2c(S(=O)(=O)Nc2ccc(Cl)cc2)c2oc(C)cc(=O)c12
inactive: HCC 2998 > 100 µM | SF-268 52.6 µM | SNB-19 99.1 µM | CAKI-1 > 34.9 µM | U-251 > 100 µM | SK-MEL-28 > 100 µM | IGROV-1 > 100 µM | LOX IMVI > 100 µM | RXF 393 25.1 µM | Malme-3M 96.6 µM | SF-295 > 89.7 µM | OVCAR-4 32.5 µM | NCI-H522 73.6 µM | A549 > 100 µM | UO-31 > 50.9 µM | UACC-62 > 100 µM | UACC-257 > 100 µM

CCN(CC)CCCNC(=O)c1ccccc1Nc1c(Cl)cccc1Cl
inactive: HCC 2998 7.03 µM | SF-268 15.5 µM | SNB-19 15.6 µM | SK-MEL-28 2.94 µM | IGROV-1 17.6 µM | TK-10 11.3 µM | LOX IMVI 8.55 µM | RXF 393 8.11 µM | OVCAR-4 7.31 µM | A549 15.7 µM | UO-31 6.79 µM | UACC-62 12 µM | UACC-257 3.03 µM

O=C(O)CC/C(=N\Nc1nsc2ccccc12)c1ccccc1
inactive: HCC 2998 30.5 µM | SF-268 39.4 µM | SNB-19 > 100 µM | U-251 39.1 µM | SK-MEL-28 34.6 µM | IGROV-1 > 100 µM | TK-10 > 100 µM | LOX IMVI 29.5 µM | RXF 393 39.1 µM | OVCAR-4 58.5 µM | A549 > 100 µM | UO-31 > 100 µM | UACC-62 58.5 µM | UACC-257 57.3 µM

Cc1ccc(NC(=O)CC(=O)n2nc(-c3ccccc3)c(/N=N/c3ccccc3C(=O)O)c2-c2ccccc2)cc1
inactive: HCC 2998 66.2 µM | SF-268 > 100 µM | SNB-19 > 100 µM | CAKI-1 > 100 µM | SK-MEL-28 > 100 µM | IGROV-1 > 100 µM | TK-10 38.6 µM | LOX IMVI > 100 µM | RXF 393 > 100 µM | Malme-3M > 100 µM | SF-295 > 100 µM | OVCAR-4 > 100 µM | NCI-H522 > 100 µM | A549 > 100 µM | UO-31 28.8 µM | UACC-62 > 100 µM

COc1nc(Cl)nc(N[C@H](C)c2c3ccccc3cc3ccccc23)n1
inactive: SF-268 18 µM | SNB-19 16.3 µM | CAKI-1 11.6 µM | U-251 16.4 µM | DU-145 12.4 µM | SK-MEL-28 2.3 µM | IGROV-1 6.75 µM | LOX IMVI 15.6 µM | RXF 393 12.5 µM | SF-295 15.6 µM | OVCAR-4 3.12 µM | NCI-H522 7.6 µM | A549 27.7 µM | UO-31 16.9 µM | MDA-MB-231 13.9 µM | UACC-257 16 µM
active: TK-10 0.807 µM | UACC-62 0.628 µM

Cc1cccc2sc(-c3ccc(O)cc3)nc12
inactive: SF-268 16.6 µM | SNB-19 17.8 µM | CAKI-1 16.5 µM | U-251 19.3 µM | DU-145 17.8 µM | SK-MEL-28 18.5 µM | IGROV-1 13.7 µM | TK-10 22.5 µM | LOX IMVI 18.4 µM | RXF 393 16.9 µM | Malme-3M 16.9 µM | SF-295 14.6 µM | OVCAR-4 16 µM | NCI-H522 16.3 µM | A549 12.8 µM | UO-31 13.6 µM | UACC-62 16 µM | MDA-MB-231 19.8 µM | UACC-257 18.8 µM

O=C(O)CCCCCCC[C@@H]1S[C@H]1CCCCCCO
inactive: HCC 2998 > 100 µM | SF-268 > 100 µM | SNB-19 > 100 µM | CAKI-1 > 100 µM | U-251 > 100 µM | SK-MEL-28 > 100 µM | IGROV-1 > 64.7 µM | LOX IMVI > 100 µM | RXF 393 > 100 µM | Malme-3M > 100 µM | SF-295 > 100 µM | OVCAR-4 > 100 µM | NCI-H522 > 100 µM | A549 > 100 µM | UO-31 > 100 µM | UACC-62 > 100 µM | UACC-257 > 100 µM

CS(=O)(=O)c1ccc2nc(-c3ccc(O)cc3)sc2c1
inactive: SF-268 15.5 µM | SNB-19 17.4 µM | CAKI-1 17.6 µM | U-251 19 µM | DU-145 15.7 µM | IGROV-1 19.2 µM | TK-10 16.3 µM | LOX IMVI 22.1 µM | RXF 393 16.9 µM | Malme-3M 16.7 µM | SF-295 16.7 µM | NCI-H522 13.9 µM | A549 16.4 µM | UO-31 14.8 µM | UACC-62 17.9 µM | MDA-MB-231 20.6 µM | UACC-257 19.6 µM

CCOC(=O)CCn1[nH]c(=O)c(Cl)c(Cl)c1=O
inactive: HCC 2998 > 100 µM | SF-268 > 100 µM | SNB-19 > 100 µM | CAKI-1 > 100 µM | U-251 > 100 µM | SK-MEL-28 > 100 µM | IGROV-1 > 100 µM | TK-10 > 100 µM | LOX IMVI > 100 µM | RXF 393 > 100 µM | Malme-3M > 100 µM | SF-295 > 100 µM | OVCAR-4 > 100 µM | NCI-H522 > 100 µM | A549 > 100 µM | UO-31 > 100 µM | UACC-62 > 100 µM | UACC-257 > 100 µM

Nc1nc(N)nc(-c2ccccc2NS(=O)(=O)c2ccc([N+](=O)[O-])cc2)n1
inactive: HCC 2998 > 70.5 µM | SF-268 96.8 µM | SNB-19 > 100 µM | U-251 > 84.9 µM | SK-MEL-28 > 100 µM | IGROV-1 > 100 µM | LOX IMVI 38.2 µM | RXF 393 > 52 µM | Malme-3M > 100 µM | SF-295 99.1 µM | OVCAR-4 44.2 µM | NCI-H522 55.8 µM | A549 > 91.2 µM | UO-31 > 54.8 µM | UACC-62 > 96.6 µM | UACC-257 43 µM

O=C(Nc1ccc(I)cc1C(=O)NCCO)c1cccs1
inactive: HCC 2998 > 100 µM | SF-268 > 100 µM | SNB-19 > 100 µM | CAKI-1 > 100 µM | U-251 > 100 µM | SK-MEL-28 > 100 µM | IGROV-1 > 100 µM | LOX IMVI > 100 µM | RXF 393 > 100 µM | SF-295 > 100 µM | OVCAR-4 > 100 µM | NCI-H522 > 100 µM | A549 82.8 µM | UO-31 > 100 µM | UACC-62 > 100 µM | UACC-257 > 100 µM

O=C1CN2Cc3cc(N4CCOCC4)ccc3N=C2N1
inactive: SNB-19 > 100 µM | CAKI-1 56.5 µM | U-251 39.4 µM | DU-145 49.5 µM | SK-MEL-28 > 100 µM | IGROV-1 27.5 µM | TK-10 > 100 µM | LOX IMVI > 100 µM | RXF 393 73.3 µM | Malme-3M 89.1 µM | SF-295 38.6 µM | OVCAR-4 67.9 µM | UO-31 33.4 µM | UACC-62 26.2 µM | MDA-MB-231 88.1 µM | UACC-257 89.1 µM

COc1cc(CN(C)N2C(=O)c3cccc4cc([N+](=O)[O-])cc(c34)C2=O)cc(OC)c1OC
inactive: SNB-19 > 100 µM | CAKI-1 > 100 µM | U-251 > 100 µM | DU-145 > 100 µM | SK-MEL-28 > 100 µM | IGROV-1 > 100 µM | RXF 393 14.1 µM | Malme-3M > 100 µM | SF-295 54.6 µM | OVCAR-4 > 100 µM | NCI-H522 70.3 µM | UO-31 > 100 µM | UACC-62 > 100 µM | MDA-MB-231 81.3 µM

O=C1CCC(c2nc3cc(Cl)ccc3o2)C(=O)N1 (centres undefined)
inactive: HCC 2998 > 100 µM | SF-268 > 100 µM | SNB-19 > 100 µM | CAKI-1 > 100 µM | U-251 > 100 µM | SK-MEL-28 > 100 µM | IGROV-1 > 100 µM | TK-10 > 100 µM | LOX IMVI > 100 µM | RXF 393 > 100 µM | Malme-3M > 100 µM | SF-295 > 100 µM | OVCAR-4 > 100 µM | NCI-H522 > 100 µM | A549 > 100 µM | UO-31 > 100 µM | UACC-62 > 100 µM | UACC-257 > 100 µM

CC(C)CC/N=c1/cc2n(-c3ccc(Cl)cc3)c3ccccc3nc-2cc1Nc1ccc(Cl)cc1
inactive: HCC 2998 3.86 µM | SF-268 27.5 µM | SNB-19 32.3 µM | CAKI-1 10.4 µM | U-251 8.67 µM | SK-MEL-28 15.6 µM | IGROV-1 3.13 µM | LOX IMVI 2.89 µM | RXF 393 3.37 µM | Malme-3M 11.9 µM | SF-295 11.9 µM | OVCAR-4 2.65 µM | NCI-H522 2.11 µM | A549 15.3 µM | UO-31 5.56 µM | UACC-62 5.52 µM | UACC-257 7.6 µM

CCOC(=O)C(C)OC(=O)c1ccc(C)cc1 (centres undefined)
inactive: HCC 2998 > 100 µM | SF-268 > 100 µM | SNB-19 > 100 µM | U-251 > 100 µM | SK-MEL-28 > 100 µM | IGROV-1 > 100 µM | TK-10 > 100 µM | LOX IMVI > 100 µM | RXF 393 > 100 µM | Malme-3M > 100 µM | SF-295 > 10 µM | NCI-H522 > 100 µM | A549 > 100 µM | UO-31 > 100 µM | UACC-62 > 100 µM | UACC-257 > 100 µM
